Experimental data: patent US5391765A, “Cholesterol lowering/antioxidant nitroxides” (Bristol-Myers Squibb Company, priority 1993, dated 1995)

Columns and labels:
HepG2 cells = assay: Cholesterol biosynthesis, 14C-acetate incorporation in HepG2 cells; format: cell-based; settings: Homo sapiens, 4 h incubation, 14C-acetate incorporation over final hour, read-out: Chol. Biosynthesis
Method: (§1) The human hepatoma HepG2 cell culture model was employed to compare the intrinsic activities of the synthetic analogues relative to the tocotrienols. HepG2 cells were incubated with the indicated compounds for 4 hours at 10 μM. Cholesterol synthesis was assayed by ^14 C-acetate incorporation over the final hour of incubation, and HMG-CoA reductase suppression (specific activity) was assayed in the microsomal fraction isolated from parallel cultures at the end of the 4 hour incubation. […] (Table I)

LDL [1] = assay: In vitro copper-mediated LDL oxidation, conjugated diene lag time extension; settings: 10 μM incubated with rabbit plasma, isolated LDL, added Cu++; lag time ratio treated/control
HMG-CoA reductase [2] = assay: HMG-CoA reductase suppression (specific activity) in microsomal fraction of treated HepG2 cells; format: cell-based, human; settings: 10 μM, 4 h incubation
Method: as §1

[3] = test system: normocholesterolemic chickens; assay: Serum lipids (total, LDL and HDL cholesterol) in normocholesterolemic male chickens; format: in vivo, chicken; settings: orally dosed for 4 weeks at 4 mg/kg/day
Method: (§2) Hypocholesterolemic activity was evaluated for the synthetic analogues using γ-tocotrienol as a control in normocholesterolemic chickens. Newborn male chicks (6-10 for each group) were raised on a standard corn-soybean-based control diet for two weeks and then were switched to either control or experimental diets for four weeks. Drug treatment consisted of the addition of test compound to the corn-soybean-based. At the end of the feeding period, all the birds were fasted (about 36 hours) and refed (about 48 hours) to induce cholesterolgenic enzymes prior to sacrifice. The specific activity of HMG-CoA reductase, total serum cholesterol levels, HDL/LDL cholesterol pools, and triglyceride levels (data not shown) were examined (Table II).
(§3) Effects of Compound 3 on Lipid Parameters in Male Chickens
(§4) Orally dosed for 4-weeks at 4 mg/kg/day

HMG-CoA reductase [4] = assay: HMG-CoA reductase specific activity in normocholesterolemic male chickens; format: in vivo, chicken; settings: orally dosed for 4 weeks at 4 mg/kg/day
Method: as §2, §3, §4

[5] = Oxidation potential by cyclic voltammetry
LDL [6] = settings: in vitro and in vivo; cited from earlier work
[7] = background statement; cited from earlier work
LDL [8] = settings: oral vitamin E supplementation; cited from earlier work

Row | Molecule | activity at 10 µM (HepG2 cells) [%] | HMGR Suppression (HMG-CoA reductase [2]) | HDL-C [3] | LDL-C [3] | Oxd. Potential [5] [Volts] | also measured
1 | CC(C)=CCC/C(C)=C/CC/C(C)=C/CCSCC1=CC(C)(C)N([O])C1(C)C [Compound 3, 2,5-Dihydro-2,2,5,5-Tetramethyl-3-[[(4,8,12-Trimethyl-3(E),7(E),11-Tridecatrienyl)thio]methyl]-1H-Pyrrole N-Oxide Radical] | 5 | 45% of Control | 85.8 % of Control | 52.8 % of Control | 0.65 | LDL Oxd. Inhib. mean lag ratio (LDL [1]): 0.97; Tot.-C ([3]; total serum cholesterol): 72.0 % of Control; HMGR (HMG-CoA reductase [4]): 56.0 % of Control
2 | CC(C)=CCC/C(C)=C/CC/C(C)=C/CCCOc1ccc2c(c1)C(C)=CC(C)(C)N2[O] [Compound 5, 1,2 -Dihydro-2,2,4-Trimethyl-6-[(5,9,13 -Trimethyl-4(E),8(E),12-tetradecatrienyl)oxy]Quinoline N-Oxide Radical] | 72 | – | – | – | – | –
3 | CC(C)(Sc1cc(C(C)(C)C)c(O)c(C(C)(C)C)c1)Sc1cc(C(C)(C)C)c(O)c(C(C)(C)C)c1 [PROBUCOL, 4,4'-[(1-methylethylidene)bis(thio)]bis[2,6-bis(1,1-dimethylethyl)]] | – | – | – | – | 1.12 | oxidative modification of LDL (LDL [6]): inhibits the oxidative modification of LDL both in vitro and in vivo; bioavailability [7]: suffers from bioavailability problems
4 | Cc1c(C)c2c(c(C)c1O)CCC(C)(CCCC(C)CCCC(C)CCCC(C)C)O2 (stereo not drawn) [α-Tocopherol] | – | – | – | – | 0.81 | –
5 | CC(C)=CCC/C(C)=C/CC/C(C)=C/CCC1(C)CCc2cc(O)c(C)c(C)c2O1 (centres unmarked) [γ-Tocotrienol] | 75 | 65% of Control | 87.0 % of Control | 54.8 % of Control | 0.94 | –
6 | vitamin E | – | – | – | – | – | antioxidant effectiveness, variation between subjects (LDL [8]): varied considerably from subject to subject; oxidative resistance of LDL (LDL [8]): significantly enhanced
